The target in assay [1] is HCV NS3 protease genotype 3a (3A-1) (Hepatitis C virus genotype 3a, UniProt Q81258). Kind of assay: HCV NS3 protease time-resolved fluorescence (TRF) assay, genotype 3a. It counts as biochemical. The note with it: Ki 3a. A digest of the protocol:
(§1)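 IC50 values derive from 4-parameter fitting of TRF signal after a 6 h room-temperature cleavage of 25 nM peptide substrate by NS3/NS4A that had been pre-incubated 10 min with compound.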

For assay [2], the target named is T1, HCV genotype 1b (BK) NS3 modified enzyme with a R155K mutation (Hepatitis C virus genotype 1b, UniProt P26663, R1181K).
T1 construct: HCV genotype 1b (BK) NS3 modified enzyme
Kind of assay: HCV NS3 protease time-resolved fluorescence (TRF) assay, genotype 1b R155K. It counts as biochemical. To be noted: Ki 1b R155K, genotype 1b (BK) NS3 R155K; single value. A digest of the protocol:
as §1

As a reminder, the Ki is a dissociation constant, usually derived from enzyme kinetics or from competition with a known ligand. Regarding `C=C[C@@H]1C[C@]1(NC(=O)[C@@H]1C[C@@H]2CN1C(=O)[C@H](C(C)(C)C)NC(=O)O[C@@H]1C[C@H]1CCCCCc1c(nc3c(OC)cccc3c1OCCCN1CCCC1)O2)C(=O)NS(=O)(=O)C1(C)CC1` [Example 143, (1aR,5S,8S,10R,22aR)-5-tert-butyl-N-[(1R,2S)-2-ethenyl-1-{[(1-methylcyclopropyl)sulfonyl]carbamoyl}cyclopropyl]-13-methoxy-3,6-dioxo-17-[3-(pyrrolidin-1-yl)propoxy]-1,1a,3,4,5,6,9,10,18,19,20,21,22,22a-tetradecahydro-8H-7,10-methanocyclopropa[18,19][1,10,3,6]dioxadiazacyclononadecino[11,12-b]quinoline-8-carboxamide], the results for the Ki in assay [1] and in assay [2] were 0.64 nM and 0.059 nM, respectively.

Consider `C=C[C@@H]1C[C@]1(NC(=O)[C@@H]1C[C@@H]2CN1C(=O)[C@H](C(C)(C)C)NC(=O)O[C@@H]1C[C@H]1CCCCCc1c(nc3c(OC)cccc3c1OCCCn1ccnc1)O2)C(=O)NS(=O)(=O)C1(C)CC1` [Example 144, (1aR,5S,8S,10R,22aR)-5-tert-butyl-N-[(1R,2S)-2-ethenyl-1-{[(1-methylcyclopropyl)sulfonyl]carbamoyl}cyclopropyl]-17-[3-(1H-imidazol-1-yl)propoxy]-13-methoxy-3,6-dioxo-1,1a,3,4,5,6,9,10,18,19,20,21,22,22a-tetradecahydro-8H-7,10-methanocyclopropa[18,19][1,10,3,6]dioxadiazacyclononadecino[11,12-b]quinoline-8-carboxamide], for which the values for the Ki in assay [1] and in assay [2] were 6.2 nM and 0.61 nM, respectively.

For `C=C[C@@H]1C[C@]1(NC(=O)[C@@H]1C[C@@H]2CN1C(=O)[C@H](C(C)(C)C)NC(=O)O[C@@H]1C[C@H]1CCCCCc1c(nc3cc(C)ccc3c1OCCCNC1CC1)O2)C(=O)NS(=O)(=O)C1(C)CC1` [Example 145, (1aR,5S,8S,10R,22aR)-5-tert-butyl-17-[3-(cyclopropylamino)propoxy]-N-[(1R,2S)-2-ethenyl-1-{[(1-methylcyclopropyl)sulfonyl]carbamoyl}cyclopropyl]-14-methyl-3,6-dioxo-1,1a,3,4,5,6,9,10,18,19,20,21,22,22a-tetradecahydro-8H-7,10-methanocyclopropa[18,19][1,10,3,6]dioxadiazacyclononadecino[11,12-b]quinoline-8-carboxamide], the Ki in assay [1] amounted to 1.2 nM; in assay [2], 0.079 nM.

Regarding `C=C[C@@H]1C[C@]1(NC(=O)[C@@H]1C[C@@H]2CN1C(=O)[C@H](C(C)(C)C)NC(=O)O[C@@H]1C[C@H]1CCCCCc1c(nc3cc(C)ccc3c1OCCCN1CCCC1)O2)C(=O)NS(=O)(=O)C1(C)CC1` [Example 146, (1aR,5S,8S,10R,22aR)-5-tert-butyl-N-[(1R,2S)-2-ethenyl-1-{[(1-methylcyclopropyl)sulfonyl]carbamoyl}cyclopropyl]-14-methyl-3,6-dioxo-17-[3-(pyrrolidin-1-yl)propoxy]-1,1a,3,4,5,6,9,10,18, 19,20,21,22,22a-tetradecahydro-8H-7,10-methano cyclopropa[18,19][1,10,3,6] dioxadiazacyclonona decino[11,12-b]quinoline-8-carboxamide], the Ki in assay [1] is 0.68 nM; in assay [2], 0.054 nM.

As for `C=C[C@@H]1C[C@]1(NC(=O)[C@@H]1C[C@@H]2CN1C(=O)[C@H](C(C)(C)C)NC(=O)O[C@@H]1C[C@H]1CCCCCc1c(nc3cc(C)ccc3c1OCCCN1CCOCC1)O2)C(=O)NS(=O)(=O)C1(C)CC1` [Example 147, (1aR,S,8S,10R,22aR)-5-tert-butyl-N-[(1R,2S)-2-ethenyl-1-{[(1-methylcyclopropyl)sulfonyl]carbamoyl}cyclopropyl]-14-methyl-17-[3-(morpholin-4-yl)propoxy]-3,6-dioxo-1,1a,3,4,5,6,9, 10,18,19,20,21,22,22a-tetradecahydro-8H-7,10-methanocyclopropa[18,19] [1,10,3,6]dioxadiaza cyclononadecino[11,12-b] quinoline-8-carboxamide], the Ki in assay [1] turned out to be 2.2 nM; in assay [2], 0.26 nM.

Regarding `C=C[C@@H]1C[C@]1(NC(=O)[C@@H]1C[C@@H]2CN1C(=O)[C@H](C(C)(C)C)NC(=O)O[C@@H]1C[C@H]1CCCCCc1c(nc3cc(C)ccc3c1OCCCN1CC[C@H](N(C)C)C1)O2)C(=O)NS(=O)(=O)C1(C)CC1` [Example 148, (1aR,5S,8S,10R,22aR)-5-tert-butyl-17-{3-[(3S)-3-(dimethylamino)pyrrolidin-1-yl]propoxy}-N-[(1R,2S)-2-ethenyl-1-{[(1-methylcyclopropyl)ulfonyl]carbamoyl}cyclopropyl]-14-methyl-3,6-dioxo-1,1a,3,4,5,6,9,10,18,19,20,21,22,22a-tetradecahydro-8H-7,10-methanocyclopropa[18,19] [1,10,3,6]dioxadiazacyclononadecino [11,12-b]quinoline-8-carboxamide], the Ki in assay [1] turned out to be 0.74 nM; in assay [2], 0.065 nM.

Regarding `C=C[C@@H]1C[C@]1(NC(=O)[C@@H]1C[C@@H]2CN1C(=O)[C@H](C(C)(C)C)NC(=O)O[C@@H]1C[C@H]1CCCCCc1c(nc3cc(C)ccc3c1OCCCNC)O2)C(=O)NS(=O)(=O)C1(C)CC1` [Example 149, (1aR,5S,8S,10R,22aR)-5-tert-butyl-N-[(1R,2S)-2-ethenyl-1-{[(1-methylcyclopropyl)sulfonyl]carbamoyl}cyclopropyl]-14-methyl-17-[3-(methylamino)propoxy]-3,6-dioxo-1,1a,3,4,5,6,9,10,18,19, 20,21,22,22a-tetradecahydro-8H-7,10-methanocyclopropa[1,19] [1,10,3,6]dioxadiazacyclonona decino[11,12-b]quinoline-8-carboxamide], the Ki was determined as 0.74 nM in assay [1] and 0.041 nM in assay [2].

For `C=C[C@@H]1C[C@]1(NC(=O)[C@@H]1C[C@@H]2CN1C(=O)[C@H](C(C)(C)C)NC(=O)O[C@@H]1C[C@H]1CCCCCc1c(nc3ccccc3c1OCCCCN1CCOCC1)O2)C(=O)NS(=O)(=O)C1(C)CC1` [Example 150, (1aR,5S,8S,10R,22aR)-5-tert-butyl-N-[(1R,2S)-2-ethenyl-1-{[(1-methylcyclopropyl)sulfonyl]carbamoyl}cyclopropyl]-17-[4-(morpholin-4-yl)butoxy]-3,6-dioxo-1,1a,3,4,5,6,9,10,18,19,20,21, 22,22a-tetradecahydro-8H-7,10-methanocyclopropa[18,19][1,10,3,6] dioxadiazacyclononadecino [11,12-b]quinoline-8-carboxamide], the Ki is 1.3 nM in assay [1] and 0.12 nM in assay [2].

Regarding `C=C[C@@H]1C[C@]1(NC(=O)[C@@H]1C[C@@H]2CN1C(=O)[C@H](C(C)(C)C)NC(=O)O[C@@H]1C[C@H]1CCCCCc1c(nc3cc(F)ccc3c1OCCCN1CCCC1)O2)C(=O)NS(=O)(=O)C1(C)CC1` [Example 151, (1aR,5S,8S,10R,22aR)-5-tert-butyl-N-[(1R,2S)-2-ethenyl-1-{[(1-methylcyclopropyl)sulfonyl]carbamoyl}cyclopropyl]-14-fluoro-3,6-dioxo-17-[3-(pyrrolidin-1-yl)propoxy]-1,1a,3,4,5,6,9,10,18, 19,20,21,22,22a-tetradecahydro-8H-7,10-methanocyclopropa[18,19][1,10,3,6] dioxadiazacyclononadecino[11,12-b] quinoline-8-carboxamide], the Ki is 0.62 nM in assay [1] and 0.074 nM in assay [2].
